Measured values taken from US9561228B2 (Celgene Avilomics Research, Inc., priority 2013, dated 2017).

Experiments:
[1] = test system: HT-29 cells (colorectal adenocarcinoma); test: Inhibition of cancer cell proliferation, HT-29 (CellTiterGlo, 72 hours); type: cell-based; conditions: Homo sapiens
Procedure: Measurement of Inhibition of Cancer Cell Proliferation (HT-29/Colorectal Adenocarcinoma)
The following protocol used an HT-29 cell line, which cell line is a model for colorectal adenocarcinoma. HT-29 cells were split and 3000 cells in 100 μl of growth medium were added per well of a flat-bottom 96-well plate. A two-fold test compound solution in serum-free RPM1640 was made, starting at 5,000 nM. Then, 3-fold serial dilutions were made across the plate from well 1 to well 11. Well 12, the last well in a row on the plate, was left as untreated control. 100 μl compound solutions were then transferred to the wells, so the total volume of media was 200 μl per well. Plates were returned to a 37° C. incubator, and the cells were cultured for 72 hours. To measure cell proliferation after 72 hours, media was discarded from the plates, 50 μl/well of fresh medium was added, and 50 μl CellTiterGlo solution was added (Promega Cat#G7573). The plate was covered with a dark lid and incubated for 10 min. A white sealing tape was applied to the bottom of the plate, and the plate was read in a luminescence plate reader. […] A 2-fold serial dilution was used to generate 8 cell densities from 50,000-390 cells per well in 50 μl media. 50 μl CellTiterGlo was added per well, and the plate was read in a luminescence plate reader after 10 min. The reading was plotted vs. cell number to generate a standard curve and the equation of the curve fit. The compound-treated sample luminescence readings were converted to cell numbers using the curve-fit equation. The percent of inhibition, using untreated control as 100% growth, was then calculated. GI50 was then calculated by GraphPad Prism.

[2] = test system: ERK1/2 phosphorylation of p90RSK in HT29 cells; test: pRSK MSD Assay in HT29 cells; type: cell-based; conditions: Homo sapiens, HT-29, read-out: ERK1/ERK2 PRSK MSD HT29 EC50
How it was run: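 Phospho-RSK level, read by electrochemiluminescence on RSK-antibody-coated MSD plates with a phospho-RSK/Sulfo-tag detection pair, reports cellular ERK1/2 activity. HT29 cells, kept overnight in 0.1% FBS medium, were exposed to compound for 120 min at 37° C before lysis.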

[3] = test system: A375 cells (malignant melanoma); test: Inhibition of cancer cell proliferation, A375 (CellTiterGlo, 72 hours); type: cell-based; conditions: Homo sapiens, A-375
Procedure: Measurement of Inhibition of Cancer Cell Proliferation (A375/Malignant Melanoma)
The following protocol used an A375 cell line, which cell line is a model for malignant melanoma. A375 cells were split and 3000 cells in […] of growth medium were added per well of a flat-bottom 96-well plate. A two-fold test compound solution in serum-free DMEM was made, starting at 5,000 nM. Then, 3-fold serial dilutions were made across the plate from well 1 to well 11. Well 12, the last well in a row on the plate, was left as untreated control. 100 μl compound solutions were then transferred to the wells, so the total volume of media was 200 μl per well. Plates were returned to a 37° C. incubator, and the cells were cultured for 72 hours. To measure cell proliferation after 72 hours, media was discarded from the plates, 50 μl/well of fresh medium was added, and 50 μl CellTiterGlo solution was added (Promega Cat#G7573). The plate was covered with a dark lid and incubated for 10 min. A white sealing tape was applied to the bottom of the plate, and the plate was read in a luminescence plate reader. […] 50 μl CellTiterGlo was added per well, and the plate was read in a luminescence plate reader after 10 min. The reading was plotted vs. cell number to generate a standard curve and the equation of the curve fit. The compound-treated sample luminescence readings were converted to cell numbers using the curve-fit equation. The percent of inhibition, using untreated control as 100% growth, was then calculated. GI50 was then calculated by GraphPad Prism.

[4] = target: T1, MEK1 activated ERK1 (Homo sapiens, UniProt P27361); test: Omnia continuous-read kinase assay for potency against MEK1 activated ERK1; type: biochemical; conditions: MEK1 activated ERK1, ATP at KM; read-out: ERK1 Omnia WT ATP KM IC50
T1 construct: purchased Millipore (Billerica, Mass.) 14-439-K
T1 sequence (P27361 whole entry): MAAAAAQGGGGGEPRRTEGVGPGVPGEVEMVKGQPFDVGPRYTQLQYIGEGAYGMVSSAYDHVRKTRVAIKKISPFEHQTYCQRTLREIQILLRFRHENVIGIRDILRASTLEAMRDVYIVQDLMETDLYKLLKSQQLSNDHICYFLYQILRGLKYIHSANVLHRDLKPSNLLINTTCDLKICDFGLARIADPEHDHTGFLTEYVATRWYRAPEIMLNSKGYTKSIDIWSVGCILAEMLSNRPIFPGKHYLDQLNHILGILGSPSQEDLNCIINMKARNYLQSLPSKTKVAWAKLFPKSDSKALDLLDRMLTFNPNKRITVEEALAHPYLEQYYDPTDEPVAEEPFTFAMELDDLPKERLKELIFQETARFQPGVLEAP
How it was run: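 Apparent IC50 came from initial reaction slopes (RFU vs time) plotted against log inhibitor with a variable-slope fit. Reactions were started with ERK1 (4 nM final) added to 50 μM ATP, roughly at its appKM, and 10 μM Sox-conjugated ST17 peptide in 20 mM Tris pH 7.5, 5 mM MgCl2. Fluorescence was monitored every 71 seconds.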

| SMILES | GI50 [1] [nM] | EC50 [2] [nM] | GI50 [3] [nM] | IC50 [4] [nM] |
| --- | --- | --- | --- | --- |
| NC(=O)c1ccccc1Nc1nc(N[C@H]2CCCN(C(=O)CO)C2)ncc1C(F)(F)F [Compound I-307, (S)-2-((2-((1-(2-hydroxyacetyl)piperidin-3-yl)amino)-5-(trifluoromethyl)pyrimidin-4-yl)amino)benzamide] | 101 to 500 | > 1000 | < 100 | – |
| C=CC(=O)Nc1ccccc1Nc1nc(Nc2cc(C(=O)NC)c(F)cc2C)ncc1Cl [Compound I-231, 5-((4-((2-acrylamidophenyl)amino)-5-chloropyrimidin-2-yl)amino)-2-fluoro-N,4-dimethylbenzamide] | < 100 | 101 to 500 | < 100 | 101 to 500 |
| C=CC(=O)Nc1ccccc1Nc1nc(NC2CCC(=O)CC2)ncc1C(F)(F)F [Compound I-23, N-(2-((2-((4-Oxocyclohexyl)amino)-5-(trifluoromethyl)pyrimidin-4-yl)amino)phenyl)acrylamide] | < 100 | – | 101 to 500 | – |
| C=C(C)S(=O)(=O)Nc1ccccc1Nc1nc(N[C@H]2CCCN(C(=O)CO)C2)ncc1C(F)(F)F [Compound I-46, (S)—N-(2-((2-((1-(2-Hydroxyacetyl)piperidin-3-yl)amino)-5-(trifluoromethyl)pyrimidin-4-yl)amino)phenyl)prop-1-ene-2-sulfonamide] | 501 to 999 | 501 to 999 | 501 to 999 | – |
| C=CC(=O)Nc1ccccc1Nc1nc(N[C@H]2CCCN(C(=O)CC)C2)ncc1Cl [Compound I-131, (S)—N-(2-((5-chloro-2-((1-propionylpiperidin-3-yl)amino)pyrimidin-4-yl)amino)phenyl)acrylamide] | < 100 | < 100 | < 100 | – |
| C=CC(=O)Nc1cc(C)ccc1Nc1nc(NC2CCC(=O)CC2)ncc1C(F)(F)F [Compound I-38, N-(5-Methyl-2-((2-((4-oxocyclohexyl)amino)-5-(trifluoromethyl)pyrimidin-4-yl)amino)phenyl)acrylamide] | 501 to 999 | > 1000 | 101 to 500 | – |
| C=CC(=O)Nc1cc(C)ccc1Nc1nc(N[C@H]2CCCN(C(=O)CN)C2)ncc1C(F)(F)F [Compound I-42, (S)—N-(2-((2-((1-(2-Aminoacetyl)piperidin-3-yl)amino)-5-(trifluoromethyl)pyrimidin-4-yl)amino)-5-methylphenyl)acrylamide] | > 1000 | 101 to 500 | > 1000 | – |
| C=CC(=O)Nc1ccccc1Nc1nc(N[C@H]2CCCN(C(N)=O)C2)ncc1C(F)(F)F [Compound I-18, (S)-3-((4-((2-Acrylamidophenyl)amino)-5-(trifluoromethyl)pyrimidin-2-yl)amino)piperidine-1-carboxamide] | 101 to 500 | 101 to 500 | 101 to 500 | – |
| C=CC(=O)Nc1ccccc1Nc1nc(Nc2cc(C(=O)NOC)ccc2C)ncc1Cl [Compound I-191, 3-((4-((2-acrylamidophenyl)amino)-5-chloropyrimidin-2-yl)amino)-N-methoxy-4-methylbenzamide] | < 100 | 101 to 500 | < 100 | – |
| C=CC(=O)Nc1ccccc1Nc1nc(N[C@H]2CCCN(C(=O)[C@@H](C)O)C2)ncc1Cl [Compound I-134, N-(2-((5-chloro-2-(((S)-1-((R)-2-hydroxypropanoyl)piperidin-3-yl)amino)pyrimidin-4-yl)amino)phenyl)acrylamide] | < 100 | 101 to 500 | < 100 | – |

Continued, values first:

| GI50 [1] [nM] | EC50 [2] [nM] | GI50 [3] [nM] | IC50 [4] [nM] | SMILES |
| --- | --- | --- | --- | --- |
| < 100 | 101 to 500 | < 100 | – | C=CC(=O)Nc1cc(C)ccc1Nc1nc(Nc2cc(C(N)=O)ccc2C)ncc1Cl [Compound I-229, 3-((4-((2-acrylamido-4-methylphenyl)amino)-5-chloropyrimidin-2-yl)amino)-4-methylbenzamide] |
| 101 to 500 | 101 to 500 | < 100 | – | C=C(C)S(=O)(=O)Nc1cc(C)ccc1Nc1nc(N[C@H]2CCCN(C(=O)CO)C2)ncc1C(F)(F)F [Compound I-47, (S)—N-(2-((2-((1-(2-Hydroxyacetyl)piperidin-3-yl)amino)-5-(trifluoromethyl)pyrimidin-4-yl)amino)-5-methylphenyl)prop-1-ene-2-sulfonamide] |
| < 100 | < 100 | < 100 | – | C=CC(=O)Nc1ccc(C)cc1Nc1nc(N[C@H]2CCCN(C(=O)CO)C2)ncc1C(F)(F)F [Compound I-37, (S)—N-(2-((2-((1-(2-hydroxyacetyl)piperidin-3-yl)amino)-5-(trifluoromethyl)pyrimidin-4-yl)amino)-4-methylphenyl)acrylamide] |
| 101 to 500 | > 1000 | > 1000 | – | CN(C)CCC(=O)Nc1ccccc1Nc1nc(N[C@H]2CCCN(C(=O)CO)C2)ncc1C(F)(F)F [Compound I-276, (S)-3-(dimethylamino)-N-(2-((2-((1-(2-hydroxyacetyl)piperidin-3-yl)amino)-5-(trifluoromethyl)pyrimidin-4-yl)amino)phenyl)propanamide] |
| > 1000 | – | > 1000 | – | C/C=C/S(=O)(=O)Nc1cc(F)ccc1Nc1nc(N[C@H]2CCCN(C(=O)CO)C2)ncc1C(F)(F)F [Compound I-48, (S,E)-N-(5-Fluoro-2-((2-((1-(2-hydroxyacetyl)piperidin-3-yl)amino)-5-(trifluoromethyl)pyrimidin-4-yl)amino)phenyl)prop-1-ene-1-sulfonamide] |
| < 100 | – | < 100 | – | C=CC(=O)Nc1cc(C)ccc1Nc1nc(N[C@H]2CCCN(C(=O)CC)C2)ncc1C(F)(F)F [Compound I-41, (S)—N-(5-Methyl-2-((2-((1-propionylpiperidin-3-yl)amino)-5-(trifluoromethyl)pyrimidin-4-yl)amino)phenyl)acrylamide] |
| 101 to 500 | 501 to 999 | < 100 | – | CCC(=O)Nc1ccccc1Nc1nc(N[C@H]2CCCN(C(=O)CO)C2)ncc1C(F)(F)F [Compound I-318, (S)—N-(2-((2-((1-(2-hydroxyacetyl)piperidin-3-yl)amino)-5-(trifluoromethyl)pyrimidin-4-yl)amino)phenyl)propionamide] |
| < 100 | < 100 | < 100 | – | C=CC(=O)Nc1ccccc1Nc1nc(Nc2cc(C(N)=O)ccc2OC)ncc1C(F)(F)F [Compound I-70, 3-((4-((2-Acrylamidophenyl)amino)-5-(trifluoromethyl)pyrimidin-2-yl)amino)-4-methoxybenzamide] |
| < 100 | > 1000 | < 100 | – | CCC(=O)Nc1ccccc1Nc1nc(N[C@H]2CCCN(C(C)=O)C2)ncc1C(F)(F)F [Compound I-317, (S)—N-(2-((2-((1-acetylpiperidin-3-yl)amino)-5-(trifluoromethyl)pyrimidin-4-yl)amino)phenyl)propionamide] |
| < 100 | – | 101 to 500 | – | C=CC(=O)Nc1ccccc1Nc1nc(NC2CCOCC2)ncc1Cl [Compound I-108, N-(2-((5-chloro-2-((tetrahydro-2H-pyran-4-yl)amino)pyrimidin-4-yl)amino)phenyl)acrylamide] |
| < 100 | 501 to 999 | < 100 | – | CC(C)S(=O)(=O)c1ccccc1Nc1nc(N[C@H]2CCCN(C(=O)CO)C2)ncc1C(F)(F)F [Compound I-310, (S)-2-hydroxy-1-(3-((4-((2-(isopropylsulfonyl)phenyl)amino)-5-(trifluoromethyl)pyrimidin-2-yl)amino)piperidin-1-yl)ethanone] |
